In BigSolDB 2.1:

SMILES: COC(=O)/C=C(\C)NC(C(=O)[O-])c1ccc(O)cc1.[K+] (stereo not given)
- solubility (mole fraction) (in ethanol, 278.22 K): 0.000319
- solubility (mole fraction) (in ethanol, 283.26 K): 0.000342
- solubility (mole fraction) (in ethanol, 288.21 K): 0.000369
- solubility (mole fraction) (in ethanol, 293.04 K): 0.0004
- solubility (mole fraction) (in ethanol, 298.07 K): 0.000438
- solubility (mole fraction) (in ethanol, 303.29 K): 0.000481
- solubility (mole fraction) (in ethanol, 308.21 K): 0.000527
- solubility (mole fraction) (in ethanol, 313.09 K): 0.000577
- solubility (mole fraction) (in ethanol, 318.23 K): 0.000635
- solubility (mole fraction) (in ethanol, 323.11 K): 0.000694
- solubility (mole fraction) (in methanol, 278.24 K): 0.00281
- solubility (mole fraction) (in methanol, 283.28 K): 0.00303
- solubility (mole fraction) (in methanol, 288.04 K): 0.00325
- solubility (mole fraction) (in methanol, 293.35 K): 0.0035
- solubility (mole fraction) (in methanol, 298.31 K): 0.00375
- solubility (mole fraction) (in methanol, 302.97 K): 0.00398
- solubility (mole fraction) (in methanol, 308.19 K): 0.00426
- solubility (mole fraction) (in methanol, 313.32 K): 0.00453
- solubility (mole fraction) (in methanol, 318.11 K): 0.0048
- solubility (mole fraction) (in methanol, 322.45 K): 0.00505
